Assay results published in ChEMBL document CHEMBL4480444, “Structural requirement of tunicamycin V for MraY inhibition” (Bioorg Med Chem, 2019).

These molecules were tested against T1, Phospho-N-acetylmuramoyl-pentapeptide-transferase (Staphylococcus aureus, UniProt P0C1R8) (assay: Inhibition of Staphylococcus aureus MraY assessed as reduction in dansylated lipid I formation using UDP-MurNAc-dansylpentapeptide incubated for 3 hrs by fluorescence assay).
T1 sequence (P0C1R8 whole entry): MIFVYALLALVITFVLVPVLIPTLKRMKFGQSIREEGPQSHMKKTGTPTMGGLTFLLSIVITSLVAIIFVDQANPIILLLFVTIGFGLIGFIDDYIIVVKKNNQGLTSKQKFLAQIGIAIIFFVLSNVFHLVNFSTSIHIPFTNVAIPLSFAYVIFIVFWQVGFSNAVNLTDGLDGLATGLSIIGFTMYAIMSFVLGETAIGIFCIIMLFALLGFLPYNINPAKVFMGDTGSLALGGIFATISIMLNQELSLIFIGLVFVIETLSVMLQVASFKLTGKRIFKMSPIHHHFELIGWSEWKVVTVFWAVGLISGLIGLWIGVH
Molecule `CC(=O)N[C@H]1[C@H](O[C@H]2O[C@H](CO)[C@@H](O)[C@H](O)[C@H]2NC(C)=O)O[C@H](C[C@@H](O)[C@H]2O[C@@H](n3ccc(=O)[nH]c3=O)[C@H](O)[C@@H]2O)[C@H](O)[C@@H]1O` has an IC50 of 36 µM. `CC(C)CCCCCCCCC/C=C/C(=O)N[C@H]1C(O)O[C@H](C[C@@H](O)[C@H]2O[C@@H](n3ccc(=O)[nH]c3=O)[C@H](O)[C@@H]2O)[C@H](O)[C@@H]1O` (stereo not given in full) was tested, and the IC50 was 36 µM. `CC(=O)N[C@H]1[C@@H](O[C@@H]2O[C@H](C[C@@H](O)[C@H]3O[C@@H](n4ccc(=O)[nH]c4=O)[C@H](O)[C@@H]3O)[C@H](O)[C@H](O)[C@H]2NC(=O)/C=C/CCCCCCCCCC(C)C)O[C@H](CO)[C@@H](O)[C@@H]1O` (stereo in doubt; form 1) showed an IC50 of 0.25 µM. `CC(=O)N[C@H]1[C@@H](O[C@@H]2O[C@H](CO)[C@H](O)[C@H](O)[C@H]2NC(=O)/C=C/CCCCCCCCCC(C)C)O[C@H](CO)[C@@H](O)[C@@H]1O` was tested, and the IC50 was > 100 µM. `CC(=O)N[C@H]1[C@@H](O[C@@H]2O[C@H](C[C@@H](O)[C@H]3O[C@@H](n4ccc(=O)[nH]c4=O)[C@H](O)[C@@H]3O)[C@H](O)[C@H](O)[C@H]2NC(=O)/C=C/CCCCCCCCCC(C)C)O[C@H](CO)[C@@H](O)[C@@H]1O` (stereo in doubt; form 2) gave an IC50 of 0.35 µM.
